30 compounds from ChEMBL document CHEMBL2439973, “Discovery of VU0409106: A negative allosteric modulator of mGlu5 with activity in a mouse model of anxiety” (Bioorg Med Chem Lett, 2013) can be followed below.

Usually IC50 stands for the midpoint of a concentration-inhibition curve. One may read the Cmax as the highest concentration seen after dosing. Usually Tmax stands for the time at which the peak concentration occurs.

Series [1] concerns the target Cytochrome P450 3A4 (Homo sapiens, UniProt P08684). The series can be described thus: Inhibition of CYP3A4 in human liver microsomes in presence of NADPH. Format: ADME, Microsome. (Microsomes from liver hold many membrane-bound enzymes, among them those of drug oxidation.)
Series [2] has as its target Metabotropic glutamate receptor 5 (Rattus norvegicus) (UniProt P31424). The series can be described thus: Negative allosteric modulation of rat mGlu5 receptor expressed in HEK293A cells assessed as inhibition of glutamate-induced calcium mobilization at 30 uM preincubated for 140 seconds prior to glutamate-stimulation measured after 60 seconds relative to glutamate. Format: functional, cell-based. Particulars: HEK293-A. On the technique in general: Calcium assays in cells follow changes in intracellular calcium, usually with a dye or a luminescent sensor.

Series [3] addresses Metabotropic glutamate receptor 5 (Rattus norvegicus, UniProt P31424). As to the kind of experiment: Negative allosteric modulation of rat mGlu5 receptor expressed in HEK293A cells assessed as inhibition of glutamate-induced calcium mobilization preincubated for 140 seconds prior to glutamate-stimulation measured after 60 seconds. Format: functional, cell-based, HEK293-A.
In series [4] the test system is Brain. The series can be described thus: Fraction unbound in mouse brain homogenates by equilibrium dialysis technique. The format is ADME, tissue-based. The note with it: brain homogenate.
Series [5] is described as follows: Ratio of drug level in brain to plasma in CD-1 mouse at 10 mg/kg, ip by LC-MS/MS analysis. Format: ADME, organism-based. More on the design: dose 10 mg/kg, route intraperitoneal. The note with it: brain and plasma, read-out: BPR.
In series [6] the test system is Brain. The series can be described thus: AUC in CD-1 mouse brain at 10 mg/kg, ip by LC-MS/MS analysis. Format: ADME, organism-based. Particulars: in vivo. Further details: dose 10 mg/kg, route intraperitoneal.
The subject of series [7] is Plasma. The series can be described thus: AUC in CD-1 mouse plasma at 10 mg/kg, ip by LC-MS/MS analysis. Format: ADME, organism-based. Further details: dose 10 mg/kg, route intraperitoneal. Particulars: in vivo.
Series [8] is described as follows: Cmax in CD-1 mouse brain at 10 mg/kg, ip by LC-MS/MS analysis. The format is ADME, organism-based. Further details: dose 10 mg/kg, route intraperitoneal.
Series [9] relates to Brain. As to the kind of experiment: Tmax in CD-1 mouse brain at 10 mg/kg, ip by LC-MS/MS analysis. The format is ADME, organism-based. More on the design: dose 10 mg/kg, route intraperitoneal. Particulars: in vivo.
Series [10] relates to Plasma. As to the kind of experiment: Cmax in CD-1 mouse plasma at 10 mg/kg, ip by LC-MS/MS analysis. The format is ADME, organism-based. Further details: dose 10 mg/kg, route intraperitoneal. The note with it: in vivo.
The subject of series [11] is Plasma. As to the kind of experiment: Tmax in CD-1 mouse plasma at 10 mg/kg, ip by LC-MS/MS analysis. Format: ADME, organism-based. Further details: dose 10 mg/kg, route intraperitoneal. The note with it: in vivo.

Sequence of Metabotropic glutamate receptor 5 (Rattus norvegicus) (P31424 21-1203 limits assumed): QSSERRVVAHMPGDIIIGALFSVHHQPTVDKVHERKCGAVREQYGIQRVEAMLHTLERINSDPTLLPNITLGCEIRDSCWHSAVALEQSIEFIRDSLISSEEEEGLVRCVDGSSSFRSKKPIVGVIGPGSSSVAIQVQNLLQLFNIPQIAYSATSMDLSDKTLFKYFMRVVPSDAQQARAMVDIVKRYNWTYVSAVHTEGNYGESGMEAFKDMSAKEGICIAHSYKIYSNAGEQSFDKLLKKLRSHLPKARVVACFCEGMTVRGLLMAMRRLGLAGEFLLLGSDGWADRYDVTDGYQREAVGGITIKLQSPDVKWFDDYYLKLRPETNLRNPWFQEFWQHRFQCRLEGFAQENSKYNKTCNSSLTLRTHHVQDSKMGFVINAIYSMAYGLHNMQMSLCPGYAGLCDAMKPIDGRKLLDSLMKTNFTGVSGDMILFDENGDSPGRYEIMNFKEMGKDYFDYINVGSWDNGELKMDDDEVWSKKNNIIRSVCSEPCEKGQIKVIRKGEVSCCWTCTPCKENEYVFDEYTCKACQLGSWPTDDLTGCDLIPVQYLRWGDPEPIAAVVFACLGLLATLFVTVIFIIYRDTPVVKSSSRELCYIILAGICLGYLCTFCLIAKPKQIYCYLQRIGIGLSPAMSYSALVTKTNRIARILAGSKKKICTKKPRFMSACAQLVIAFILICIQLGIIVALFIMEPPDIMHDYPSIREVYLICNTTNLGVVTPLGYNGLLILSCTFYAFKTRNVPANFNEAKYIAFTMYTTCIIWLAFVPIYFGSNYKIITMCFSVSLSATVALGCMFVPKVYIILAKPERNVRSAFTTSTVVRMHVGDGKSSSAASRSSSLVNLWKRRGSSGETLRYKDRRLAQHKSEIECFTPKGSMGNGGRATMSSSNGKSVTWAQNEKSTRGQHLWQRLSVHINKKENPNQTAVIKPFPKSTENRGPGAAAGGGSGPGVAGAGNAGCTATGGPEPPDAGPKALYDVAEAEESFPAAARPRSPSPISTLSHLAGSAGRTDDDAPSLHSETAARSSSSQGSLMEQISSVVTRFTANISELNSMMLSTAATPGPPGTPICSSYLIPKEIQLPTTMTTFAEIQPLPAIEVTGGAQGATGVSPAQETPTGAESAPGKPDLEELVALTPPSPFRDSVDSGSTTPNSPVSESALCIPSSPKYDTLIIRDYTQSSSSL
Sequence of Cytochrome P450 3A4 (P08684 whole entry): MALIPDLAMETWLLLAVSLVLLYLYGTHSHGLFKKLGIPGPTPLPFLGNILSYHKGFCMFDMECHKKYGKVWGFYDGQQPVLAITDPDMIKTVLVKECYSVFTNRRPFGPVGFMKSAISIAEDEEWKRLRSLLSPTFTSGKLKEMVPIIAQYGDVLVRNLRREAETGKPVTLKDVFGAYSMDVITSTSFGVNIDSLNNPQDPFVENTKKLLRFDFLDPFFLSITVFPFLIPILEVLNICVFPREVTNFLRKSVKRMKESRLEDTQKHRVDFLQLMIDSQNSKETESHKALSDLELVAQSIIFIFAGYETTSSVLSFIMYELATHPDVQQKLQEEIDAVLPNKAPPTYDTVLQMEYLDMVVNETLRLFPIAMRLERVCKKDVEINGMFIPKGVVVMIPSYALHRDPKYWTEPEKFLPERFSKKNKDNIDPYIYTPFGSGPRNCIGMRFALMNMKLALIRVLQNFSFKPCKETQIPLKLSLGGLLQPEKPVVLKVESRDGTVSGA
Sequence of Metabotropic glutamate receptor 5 (P31424 whole entry): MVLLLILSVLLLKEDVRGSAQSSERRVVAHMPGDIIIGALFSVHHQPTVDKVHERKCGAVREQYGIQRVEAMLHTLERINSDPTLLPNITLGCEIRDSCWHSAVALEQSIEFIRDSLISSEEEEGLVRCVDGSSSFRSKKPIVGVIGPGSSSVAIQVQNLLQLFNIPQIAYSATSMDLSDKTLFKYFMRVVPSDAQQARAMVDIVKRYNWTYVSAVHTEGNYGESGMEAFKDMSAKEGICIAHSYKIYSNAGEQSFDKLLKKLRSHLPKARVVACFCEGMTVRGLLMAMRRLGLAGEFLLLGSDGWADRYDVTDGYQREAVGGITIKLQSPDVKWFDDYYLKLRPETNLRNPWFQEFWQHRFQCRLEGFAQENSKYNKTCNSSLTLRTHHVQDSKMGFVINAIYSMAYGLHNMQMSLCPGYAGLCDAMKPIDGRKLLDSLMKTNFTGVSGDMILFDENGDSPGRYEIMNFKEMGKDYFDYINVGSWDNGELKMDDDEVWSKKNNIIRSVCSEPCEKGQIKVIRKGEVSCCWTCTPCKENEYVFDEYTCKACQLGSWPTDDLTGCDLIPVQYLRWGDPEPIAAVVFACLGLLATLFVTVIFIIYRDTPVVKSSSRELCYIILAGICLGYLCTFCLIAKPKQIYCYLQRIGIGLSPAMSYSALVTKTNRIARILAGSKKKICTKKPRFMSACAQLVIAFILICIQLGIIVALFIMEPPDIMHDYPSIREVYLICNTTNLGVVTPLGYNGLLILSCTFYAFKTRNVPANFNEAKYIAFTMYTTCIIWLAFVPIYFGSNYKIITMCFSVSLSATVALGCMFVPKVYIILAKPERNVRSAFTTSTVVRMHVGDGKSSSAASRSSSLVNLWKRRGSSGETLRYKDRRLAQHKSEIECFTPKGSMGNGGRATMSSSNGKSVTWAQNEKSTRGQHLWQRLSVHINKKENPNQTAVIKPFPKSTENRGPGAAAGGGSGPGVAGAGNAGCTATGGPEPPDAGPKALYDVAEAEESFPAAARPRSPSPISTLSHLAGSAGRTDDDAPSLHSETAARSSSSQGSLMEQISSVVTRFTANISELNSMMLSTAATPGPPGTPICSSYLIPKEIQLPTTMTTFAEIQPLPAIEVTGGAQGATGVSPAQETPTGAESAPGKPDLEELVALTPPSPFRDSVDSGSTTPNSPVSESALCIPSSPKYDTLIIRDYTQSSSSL

For `O=C(Nc1ccc(F)cn1)c1cc(Cl)cc(Oc2cncc(F)c2)c1`, the IC50 turned out to be 1300 nM in [1] and 25 nM in series [3]. Moreover, the %max in series [2] is 1.1%. In addition, the Fu in series [4] was found to be 0.007.
For the compound `Cc1csc(NC(=O)c2cc(Cl)cc(Oc3cncnc3)c2)n1`, the IC50 in series [1] came to 2200 nM. This compound also returned a Fu in series [4] of 0.025.
Take `O=C(Nc1cccc(Cl)n1)c1cc(Cl)cc(Oc2cncnc2)c1`: the IC50 in series [1] turned out to be 1900 nM. In [4], this compound displayed a Fu of 0.019.
For the compound `N#Cc1cc(Oc2cncnc2)cc(C(=O)Nc2ccc(F)cn2)c1`, the %max in [2] was found to be 1.1%. Besides, the IC50 in series [3] was found to be 318 nM.
Turning to `Cc1cccc(NC(=O)c2cc(Cl)cc(Oc3cncc(F)c3)c2)n1`, the IC50 is 700 nM in series [1] and 7.5 nM in series [3]. The %max in series [2] was 1.8%. In addition, the Fu in series [4] was 0.003.
As for `O=C(Nc1ccc(F)cn1)c1cccc(Oc2cccnc2)c1`, in [3], the IC50 was 3780 nM.
For `Cc1cccc(NC(=O)c2cccc(Oc3cccnc3)c2)c1`, in series [2], the %max came to 1.4%. Also, the IC50 in [3] was determined as 2190 nM.
For the compound `N#Cc1cncc(Oc2cc(Cl)cc(C(=O)Nc3ccc(F)cn3)c2)c1`, the IC50 in [1] is 1700 nM; in [3] it was 27 nM. In addition, the %max in series [2] came to 1.7%. In addition, the Fu in series [4] was determined as 0.016.
As for `Cc1ncc(Oc2cc(Cl)cc(C(=O)Nc3ccc(F)cn3)c2)cn1`, the %max in series [2] was 2.6%. Also, the IC50 in series [3] amounted to 4470 nM.
Regarding `Cc1csc(NC(=O)c2cccc(Oc3cccnc3)c2)n1`, the IC50 in [3] was 772 nM.
With `O=C(Nc1ccc(F)c(C(F)F)n1)c1cc(Cl)cc(Oc2cncnc2)c1`, the IC50 in series [3] was 502 nM.
For the compound `Cc1csc(NC(=O)c2cc(Oc3cncnc3)cc(C(F)(F)F)c2)n1`, in series [2], the %max came to 1.7%. Also, in series [3], the IC50 stood at 283 nM.
In the case of `Cc1cccc(NC(=O)c2cc(Cl)cc(Oc3cncnc3)c2)n1`, the IC50 in [1] came out at 4300 nM. For the same compound, the Fu in series [4] was 0.052.
For `O=C(Nc1nc(C(F)F)cs1)c1cc(Cl)cc(Oc2cncnc2)c1`, the IC50 in series [3] was found to be 310 nM.
Turning to `Cc1cc(NC(=O)c2cc(Cl)cc(Oc3cncnc3)c2)ncc1F`, the IC50 in series [3] was found to be 3250 nM.
Take `O=C(Nc1ccc(F)cn1)c1cc(Oc2cncnc2)cc(C(F)(F)F)c1`: in series [2], the %max was 3.2%. Further, in series [3], the IC50 was 5530 nM.
`CCc1ccnc(NC(=O)c2cc(Cl)cc(Oc3cncnc3)c2)c1`: the IC50 in [3] stood at 4450 nM.
In the case of `O=C(Nc1ccc(F)cn1)c1cc(Cl)cc(Oc2cncnc2)c1`, the Kp in series [5] stood at 0.93. Further, the AUC in series [6] is 365 ng·h/g; in [7], 391 ng·h/mL. Further, the Cmax was 311 ng/g in series [8] and 303 ng/mL in series [10]. For the same compound, the figures for the Tmax in series [9] and in series [11] were 15 min and 30 min, respectively. Also, in series [1], the IC50 worked out at 6200 nM. The same compound gave a Fu in series [4] of 0.08.
With `COc1cccc(NC(=O)c2cc(F)cc(Oc3cncnc3)c2)n1`, the IC50 in series [3] was 668 nM.
For `O=C(Nc1ccc(Cl)cn1)c1cc(Cl)cc(Oc2cncnc2)c1`, the IC50 in [3] was 103 nM.
Regarding `Cc1cccc(NC(=O)c2cc(Cl)cc(Oc3cnc(C)nc3)c2)n1`, the %max in series [2] was determined as 1.6%. Further, in [3], the IC50 came out at 96 nM.
Take `O=C(Nc1cccc(F)n1)c1cc(Cl)cc(Oc2cncnc2)c1`: in series [1], the IC50 is less than 100 nM. In addition, the Fu in series [4] is 0.057.
In the case of `Cc1cc(Oc2cncnc2)cc(C(=O)Nc2ccc(F)cn2)c1`, in series [3], the IC50 worked out at 19 nM.
On to `Cc1csc(NC(=O)c2cccc(Oc3cncnc3)c2)n1`, for which the IC50 in series [3] turned out to be 205 nM.
In the case of `O=C(Nc1cccc(Cl)c1)c1cccc(Oc2cccnc2)c1`, the %max in series [2] is 1.6%. In addition, the IC50 in [3] stood at 1960 nM.
On to `Nc1cc(NC(=O)c2cccc(Cl)c2)cc(Oc2cccnc2)c1`, for which the %max in series [2] is 1.3%. In series [3], the IC50 was 284 nM.
Take `O=C(Nc1nccs1)c1cc(F)cc(Oc2cncnc2)c1`: in series [3], the IC50 was found to be 1790 nM.
In the case of `Cc1cccc(NC(=O)c2cc(Cl)cc(Oc3cncc(C#N)c3)c2)n1`, the %max in [2] is 1.6%. Also, in [3], the IC50 was found to be 10 nM.
For the compound `Cc1nc(NC(=O)c2cc(F)cc(Oc3cncnc3)c2)sc1F`, the IC50 in series [3] worked out at 54 nM.
As for `Cc1nc(NC(=O)c2cc(Cl)cc(Oc3cncnc3)c2)ccc1F`, the IC50 in series [3] amounted to 50 nM.
